What was measured:
[1] = molecular target: T1, Acidic mammalian chitinase (Homo sapiens, UniProt Q9BZP6); test: Binding affinity to biotinylated-acidic mammalian chitinase
[2] = molecular target: T1, Acidic mammalian chitinase; test: Inhibition of acidic mammalian chitinase after 60 mins
[3] = Inhibition of chitotriosidase after 60 mins
Mus musculus [4] = test: Antiallergic activity in C57BL/6 mouse assessed as reduction of HDM/CRA-induced chitinase activity in bronchoalveolar lavage fluid at 10 mg/kg, ip administered once daily; assay type: functional, C57BL6, Lung; parameters: scale not given: the % may be the effect or the level left; details: route intraperitoneal
Mus musculus [5] = test: Antiallergic activity in C57BL/6 mouse assessed as reduction of HDM/CRA-induced chitinase activity in bronchoalveolar lavage fluid at 50 mg/kg, po administered twice daily; assay type: functional, C57BL6, Lung; parameters: scale not given: the % may be the effect or the level left

T1 sequence (Q9BZP6 whole entry): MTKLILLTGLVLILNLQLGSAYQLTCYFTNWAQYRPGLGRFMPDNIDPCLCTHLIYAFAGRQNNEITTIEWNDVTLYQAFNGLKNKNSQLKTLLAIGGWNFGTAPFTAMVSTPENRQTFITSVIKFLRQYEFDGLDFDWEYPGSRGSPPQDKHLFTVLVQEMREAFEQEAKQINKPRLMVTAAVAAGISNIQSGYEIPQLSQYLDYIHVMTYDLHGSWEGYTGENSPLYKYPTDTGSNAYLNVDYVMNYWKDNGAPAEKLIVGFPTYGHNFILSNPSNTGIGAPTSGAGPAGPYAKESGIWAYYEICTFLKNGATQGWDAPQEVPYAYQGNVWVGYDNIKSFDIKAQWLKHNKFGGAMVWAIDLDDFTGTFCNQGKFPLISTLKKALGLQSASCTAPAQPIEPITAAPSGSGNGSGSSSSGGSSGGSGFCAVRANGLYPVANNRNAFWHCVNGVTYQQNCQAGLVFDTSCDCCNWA

IC50 [3]	SMILES	other results
90.1 µM	NC(=O)c1cccnc1N1CCNCC1	Kd [1]: 141 µM; IC50 [2]: 102 µM
> 100 µM	N=C(N)N1CCN(c2ccc(Cl)cc2)CC1	–
4.23 µM	Nc1n[nH]c(N2CCN(CCOc3ccc(Br)cc3)CC2)n1	Activity (Mus musculus [5]): 43%

Second part, the molecule before the results:

SMILES	IC50 [3]	other results
C[C@@H]1C[C@H]2[C@@H]3CCC4=CC(=O)C=C[C@]4(C)[C@@]3(F)[C@@H](O)C[C@]2(C)[C@@]1(O)C(=O)CO [DEXAMETHASONE]	–	Activity (Mus musculus [4]): 60%
Cc1[nH]c2ccccc2c1CN1CCN(c2ccccn2)CC1	1.34 µM	–

— ChEMBL document CHEMBL1212885, “Identification and characterization of acidic mammalian chitinase inhibitors” (J Med Chem, 2010)
